The subject of this assay is pre-adipocytes 3T3-L1. Put plainly: Differentiation of 3T3-L1 pre-adipocytes into adipocytes, lipid content by Oil Red colouring. It is filed as cell-based. The note with it: Mus musculus, 3T3-L1, retinoic acid 10 μM. Here is the method:
The study on the effect of this extract on a line of pre-adipocytes ET3-L1 induced as adipocytes is carried out according to a protocol which is known and which is in particular described in the document which appeared in Annu. Rev. Biochem., 1995, 64: 345-373, entitled “Transcriptional regulation of gene expression during adipocyte differentiation”, the authors of which were MacDougald O A and Lane M D.
This protocol is set out briefly below. The pre-adipocyte cells of the line e=3T3-L1 were kept in culture in a Dulbelcco modified Eagle medium (DMEM) containing 2 mM of glutamine, 4.5 g/l of glucose, 0.11 g/l of sodium pyruvate, 10% of calf serum (SVD) and antibiotics (50 U penicillin and 50 μg of streptomycin per ml of medium). Their differentiation as adipocytes was brought about in the following manner: firstly, the pre-adipocyte cells were cultivated with confluence for two days. At the time which will be referred to below as D0, the culture medium was replaced by a differentiation inducing medium (DIM) composed of DMEM containing 10% foetal calf serum (FCS) with the addition of 0.25 mM of isobutyl methyl xanthine (IBMX), 0.25 μM of dexamethasone and 1.74 μM of insulin. After two days of incubation, and therefore at time D2, the induction medium was delicately withdrawn and replaced by a new culture medium containing 10% of FCS and 0.174 μM of insulin. Next the culture medium was renewed every two days.
After seven days of culture, the lipid content of the pre-adipocyte cells was assessed by colouring with Oil Red. More precisely, the pre-adipocyte cells were fixed to 3.7% formaldehyde and then incubated for ten minutes with a Oil Red colorant solution (0.5% in an isopropanol/water mixture). After 10 minutes, the cellular carpet was rinsed with water and the pre-adipocyte cells were lysed with pure isopropanol. The optical density (OD) of the medium was measured at 540 nm.
The extract of the brown alga Halopteris scoparia was tested on 3T3-L1 cells during the induction phase by means of the DIM, which therefore commenced at day D0.
In the first experimental series, this extract was added from the very start of the differentiation (at time D0) and kept present in the medium until the cells were fixed (at time D7), by renewal every two days (that is to say at time D2 and D4). The extract was tested at the following three concentrations: 0.4%, 1% and 2.5%. In the same way, use was made of a sample of 10 μM retinoic acid, which is known for inhibiting the differentiation of pre-adipocytes into adipocytes, as is in particular described in the article which appeared in Differentiation, 1990, 45:119-127, entitled “The molecular basis for inhibition of adipose conversion of 3T3-L1 cells by retinoic acid”, the authors of which were Stone R L and Berlnohr D A. […]

In patent US20060134131A1, “Cosmetic or pharmaceutical composition comprising a genus halopteris brown alga extract” (priority 2002, published 2006) one finds inhibition data, which are given here for 1 compound.

Where two headings read alike, the source gives them in different places.

A word on the inhibition: it is the relative decrease from the control value, in per cent.

Consider `CC1=C(/C=C/C(C)=C/C=C/C(C)=C/C(=O)O)C(C)(C)CCC1` [Retinoic Acid, retinoic acid], for which the inhibition at 10 µM by setting is: (first experimental series, five manipulations, read-out: % inhibition of the differentiation) 82 ± 21%; (presence from D0 to D2, read-out: % inhibition of differentiation) 40 ± 5%; (presence from D0 to D7, second series, read-out: % inhibition of differentiation) 51 ± 3%; (presence from D2 to D7, read-out: % inhibition of differentiation) 3 ± 2%.
